Source: US11623909B2, “Water-based extraction and purification processes for cannabinoid acids” (MEDPHARM IOWA LLC, priority 2019, dated 2023)

How the values were obtained:
[1] = HPLC of acidified solution after precipitation of cannabinoid acid (amount remaining in solution); type: physicochemical
Description: Precipitation of crude extract (CBDA) by acidification was done with either hydrochloric acid or nitric acid. No difference was observed between the two since the precipitation was pH driven. 1.0-1.5 equivalents of acid (relative to total base) was sufficient for precipitation of the crude extract. The crude extract had CBDA purities on the order of 40-50% and were independent of the amount of acid added. E.g. adding fewer than 1.0 equivalents in an attempt to selectively precipitate either impurities or CBDA yielded crude material with similar purities. Addition of more acid yielded more precipitate of similar purity (up to 1.0-1.5 equivalents). Addition of more than 1.5 equivalents yielded no additional precipitate. Though when the mixture was allowed to sit overnight more white precipitate formed. […]
‘Spent’ CO2-stripped biomass was aliquoted out to 50 g portions (˜6 g THCA). […] All filtrate was analyzed by HPLC prior to acidification. […] Both the filtrate and dried material were analyzed by HPLC. […]
Experiment A utilized a NaOH:THCA (mol:mol) ratio of 1:1 (see Table 4). […] The amount of THCA detected in the filtrate increased with each successive wash until a rinse with no added NaOH was conducted for 1 minute. […] The precipitate was filtered off, collected, and analyzed by HPLC. The filtrate was acidified to pH 2.16 to yield a tan/brown precipitate, filter, collected and analyzed by HPLC. […]

[2] = Solubility limit of THCA anions in aqueous NaOH wash (experiment A, 1:1 NaOH:THCA); type: physicochemical; conditions: NaOH:THCA 1:1 mol:mol, room temperature, conditions of experiment A
Procedure: ‘Spent’ CO2-stripped biomass was aliquoted out to 50 g portions (˜6 g THCA). Water (400 ml) and a 40 wt % solution of NaOH (see Tables 4-6) was added to the plant material. The mixture was allowed to stir for 10 minutes at 500-1000 RPM (speed was adjusted to minimize foaming). Solid materials were filtered off with coffee filters. The process was repeated for a total of 4 (Expt A) to 5 (Expts B&C) iterations. A final rinse 2×200 ml with no NaOH was stirred for 1 minute then filtered off. All filtrate was analyzed by HPLC prior to acidification. Acidification to pH 2-3 with HCl, as described above, yielded a precipitate which was filtered off and dried. Both the filtrate and dried material were analyzed by HPLC. All extractions were done at room temperature.
Experiment A utilized a NaOH:THCA (mol:mol) ratio of 1:1 (see Table 4). […] The amount of THCA detected in the filtrate increased with each successive wash until a rinse with no added NaOH was conducted for 1 minute. […] The precipitate was filtered off, collected, and analyzed by HPLC. The filtrate was acidified to pH 2.16 to yield a tan/brown precipitate, filter, collected and analyzed by HPLC. […] The final filtrate (left over after harvesting THCA) contained THCA quantities that were below the limit of quantification (less than 10 mg/400 g wash/rinse; that is <0.001 wt % THCA).

SMILES	CBDA remaining in acidified solution (loss) ([1]; acidified solution pH~4, after precipitation of crude extract) [μg CBDA/ml]	THCA in final filtrate after acidification (below limit of quantification) ([1]; filtrate after acidification to pH 2-3 with HCl and harvesting THCA, experiment A) [wt % THCA]	solubility limit for THCA anions [2]
C=C(C)[C@@H]1CCC(C)=C[C@H]1c1c(O)cc(CCCCC)c(C(=O)O)c1O [CBDA]	~7	–	–
CCCCCc1cc2c(c(O)c1C(=O)O)[C@@H]1C=C(C)CC[C@H]1C(C)(C)O2 [THCA]	–	< 0.001	around 0.3 wt %
